The values that follow come from patent US10106854B2, “Biomarkers for prostate cancer” (Aarhus Universitet, priority 2012, dated 2018).

In the assay the test system is BPH1, PNT1A, LNCaP, 22rv1, PC3 and DU145 cell lines. The assay is described as follows: 5-aza-dC treatment, RNA extraction and RT-qPCR. Type of assay: cell-based, human. The settings on record: prostatic cell lines, 1 μM 5-aza-dC for two days, five day recovery; when methylation was reduced, not when DNA methylation levels were unaffected. On the procedure:
BPH1, PNT1A, LNCaP, 22rv1, PC3 and DU145 cell lines at >50% confluence were treated with 1 μM freshly prepared 5-aza-2′-deoxycytidine (5-aza-dC) in 50% acetic acid (Sigma, cat. no.: A3656) for two days. After a five day recovery period, DNA was purified as described above. RNA was purified using the RNeasy Mini kit from Qiagen and stored at −80° C. One μg RNA was reverse transcribed using 100 pmol oligo-dT(24) primer and the SuperScript II Reverse Transcriptase kit (Invitrogen). Taqman® gene expression assays: AOX1 (Hs01565232_m1), C1orf114 (Hs00982321_g1), GAS6 (Hs01090305_m1), and HAPLN3 (Hs00820260_m1) were used with Taqman Mastermix no UNG. UBC was used for normalization (primers: 5′-GATTTGGGTCGCGGTTCTT-3′ and 5′-[…]-3′ used with Power Sybr Green Mastermix). Assays were run twice in triplicate in 10 μL reactions. Reactions were mixed and run as described for qMSP assays.
A general note: Quantitative PCR measures a nucleic acid by following its amplification.

`Nc1ncn([C@H]2C[C@H](O)[C@@H](CO)O2)c(=O)n1` [5-aza-dC, 5-aza-2′-deoxycytidine]: the “RNA expression from DNA hypermethylated genes” value is given as “generally stimulated RNA expression”.
